Assay results from patent US6495147B1 (LVMH Recherche, priority 1997, dated 2002).

Experiments:
[1] = tested on: normal human keratinocytes; assay: Stimulation of synthesis and secretion of PG and GAG by keratinocytes (radioactive tracer incorporation); format: cell-based; details: for GAG secreted / A, stimulating activity on the secretion of GAG: 48 h; for A, stimulating activity on the secretion of GAG: versus untreated control
Protocol: These tracers enable the amount of PG and GAG to be measured.
There are two families of GAG which differ in their sugar chains. One is based on a sequence of glucosamines and the other is based on a sequence of galactosamines. It is for this reason that two different radioactive tracers were used, namely ^3H-D-glucosamine and ^14C-D-galactosamine, which become incorporated in the osidic chains of PG and GAG during their synthesis.
The cells are incubated for 24 h at 37° C. in a humidity-saturated atmosphere containing 5% of CO2.
(§1) The cultures are then incubated for 48 h at 37° C. in a humidity-saturated atmosphere containing 5% of CO2.
The enzyme is then inactivated by heating for 10 min in boiling water, after which the mixture is brought back to room temperature. A selective precipitation of the GAG is effected with 40 μl of cetylpyridinium chloride (CPC at 100 mg/ml, Sigma) in the presence of 40 μl of a mixture of hyaluronic acid (Fluka), dermatan sulfate (Fluka) and chondroitin sulfate (Sigma), all at 2 mg/ml (amounting to the addition of a solution containing 6 mg/ml of non-radioactive GAG). These non-radioactive GAG are added to trigger the precipitation and entrain the radioactive GAG (which on their own would not be in a sufficient amount to precipitate) into the precipitate. The precipitate obtained is washed twice with 400 μl of a solution of CPC at 10 mg/ml, and then solubilized in 500 μl of methanol (Merck). The radioactivity is finally measured by liquid scintillation with 10 ml of scintillating liquid (Packard).
It should be noted when processing the results that the GAG whose synthesis has been measured have two origins. They originate both from the synthesized and secreted GAG and from the synthesized and secreted PG (which have undergone hydrolysis with pronase for the purposes of the assay).
In order to reduce the radioactivity to a unit amount of cellular material, the cellular proteins are assayed. After removal of the culture medium and two rinses with a phosphate buffer of pH 7.2 (PBS, Gibco), the cellular tapetum in the culture wells is dissolved in 30 μl of 0.1 M NaOH at 37° C. and the plates are agitated for 30 min at 37° C. 200 μl of bicinchoninic acid/Cu^++ sulfate reagent (Sigma kit) are added to each well. The plates are incubated for 30 min at 37° C. in the dark and the proteins which it is desired to assay reduce the cupric ions (Cu^++) of the copper sulfate to cuprous ions (Cu^+). The latter and the bicinchoninic acid form chromogenic complexes absorbing at 570 nm, which is the wavelength used to measure the optical density. In parallel, a calibration series is prepared under the same experimental conditions with 0 to 100 μg/well of bovine serum albumin (BSA, Sigma) in order to translate the optical densities (OD) obtained with the cellular proteins into Stg of BSA equivalent per well.
The amounts of GAG measured will be reduced to a unit amount of protein (expressed in jig of BSA equivalent).
The stimulating activity “A” on the secretion of GAG is calculated in the form of a percentage according to the following formula: [formula]

[2] = tested on: normal human keratinocytes; assay: Cytotoxicity / cell viability in keratinocyte cultures; format: cell-based; details: concentrations of 1.5 and 10 mM
Protocol: as §1

[3] = D-xylose 1 mM, tracer 3H-D-glucosamine
[4] = D-xylose 1 mM, tracer 14C-D-galactosamine
[5] = D-xylose 5 mM, tracer 3H-D-glucosamine
[6] = D-xylose 10 mM, tracer 3H-D-glucosamine
[7] = D-xylose 10 mM, tracer 14C-D-galactosamine

## O=C[C@H](O)[C@@H](O)[C@H](O)CO [D-xylose]
[1]; [3]
  GAG secreted: 2148 ± 160 dpm/μg protein
  A, stimulating activity on the secretion of GAG: 55%
[1]; [4]
  GAG secreted: 136 ± 12 dpm/μg protein
  A, stimulating activity on the secretion of GAG: 34%
[1]; [5]
  GAG secreted: 2661 ± 202 dpm/μg protein
  A, stimulating activity on the secretion of GAG: 92%
[1]; D-xylose 5 mM, tracer 14C-D-galactosamine
  A, stimulating activity on the secretion of GAG: 105%
[1]; [6]
  GAG secreted: 2950 ± 262 dpm/μg protein
  A, stimulating activity on the secretion of GAG: 113%
[1]; [7]
  GAG secreted: 250 ± 28 dpm/μg protein
  A, stimulating activity on the secretion of GAG: 145%
[1]; irrespective of the radioactive tracer used
  synthesis and extracellular secretion of PG and GAG by the keratinocytes of the human epidermis: very strongly stimulates
[2]
  cytotoxicity: non-cytotoxic
